Assays:
MMP-1 = target: T1, MMP-1 (Homo sapiens, UniProt P03956); experiment: MMP-1 inhibitory action, Type I collagen Activity Measurement kit (FITC-labeled collagen type I); format: biochemical; settings: 37° C. for 3 hr, read-out: Experimental Example 2 IC50 MMP1
T1 sequence (P03956 100-469): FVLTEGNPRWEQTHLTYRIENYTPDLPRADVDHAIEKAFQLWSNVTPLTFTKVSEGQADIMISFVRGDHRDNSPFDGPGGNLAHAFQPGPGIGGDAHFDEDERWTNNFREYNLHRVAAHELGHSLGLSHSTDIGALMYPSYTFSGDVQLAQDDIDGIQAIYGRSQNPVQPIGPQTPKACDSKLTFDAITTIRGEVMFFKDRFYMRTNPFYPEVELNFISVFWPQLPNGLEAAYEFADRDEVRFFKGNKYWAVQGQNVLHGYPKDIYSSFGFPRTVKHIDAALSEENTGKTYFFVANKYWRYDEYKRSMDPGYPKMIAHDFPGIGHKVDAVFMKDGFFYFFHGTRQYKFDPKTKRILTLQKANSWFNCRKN
Protocol: For MMP-1 Assay, Type I collagen Activity Measurement kit (YAGAI YU-72013) modified to a 96-well plate format was used.
The principle of the kit is based on the property of collagen that becomes soluble in ethanol after being cleaved by MMP-1.
(§1) The enzyme and substrate were diluted with Tris-HCl buffer, and test compounds were diluted with dimethyl sulfoxide (DMSO).
The enzyme and test compounds were added into 96-well plate, and fluorescein isothiocianate (FITC)-labeled collagen type I was added as a substrate and the mixture was incubated at 37° C. for 3 hr.
The reaction was terminated by addition of Tris-HCl buffer containing ethanol. After centrifugation, the supernatant containing denatured substrate was transferred to another 96-well plate. The collagenase activity of MMP-1 was determined by measuring FITC fluorescence intensity (excitation wavelength 485 nm, emission wavelength 530 nm) of each well. The inhibitory activity of the compound in each well (%) was calculated based on the values of enzyme-free well and inhibitor-free well. The inhibitory activity of the compound was represented as IC50 (μM).

aggrecanase-1 = target: T2, aggrecanase-1 (Homo sapiens, UniProt O75173); experiment: Aggrecanase-1 inhibitory action, Particle Assay (GAG release from aggrecan-containing polyacrylamide particles); format: biochemical; settings: 37° C. for 15 hr, read-out: Experimental Example 1 IC50 AG1
T2 sequence (O75173 213-837): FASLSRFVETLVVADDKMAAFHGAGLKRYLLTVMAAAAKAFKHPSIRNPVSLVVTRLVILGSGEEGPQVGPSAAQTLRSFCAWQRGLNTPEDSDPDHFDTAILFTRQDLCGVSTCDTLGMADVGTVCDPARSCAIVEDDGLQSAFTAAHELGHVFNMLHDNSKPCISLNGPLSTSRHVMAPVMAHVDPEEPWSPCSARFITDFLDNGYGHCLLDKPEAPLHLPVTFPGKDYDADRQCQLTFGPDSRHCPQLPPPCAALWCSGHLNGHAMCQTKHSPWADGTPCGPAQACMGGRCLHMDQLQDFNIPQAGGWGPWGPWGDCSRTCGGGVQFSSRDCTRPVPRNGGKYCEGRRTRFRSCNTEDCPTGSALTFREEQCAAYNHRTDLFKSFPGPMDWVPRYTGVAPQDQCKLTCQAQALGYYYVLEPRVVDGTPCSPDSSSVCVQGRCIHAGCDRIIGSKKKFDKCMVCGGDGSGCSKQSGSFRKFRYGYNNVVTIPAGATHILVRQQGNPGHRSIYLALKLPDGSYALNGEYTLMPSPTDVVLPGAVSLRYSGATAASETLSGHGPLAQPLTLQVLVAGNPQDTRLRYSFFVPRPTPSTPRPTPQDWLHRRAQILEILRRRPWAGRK
Protocol: Aggrecanase-1 Inhibitory Action
Particle Assay was used for determination of aggrecanase activity.
as §1
Test compounds and the enzyme were added into 96-well plate, and polyacrylamide particles containing aggrecan were added as a substrate and the mixture was incubated at 37° C. for 15 hr.
After incubation; the supernatant was transferred to another plate, and mixed with 1,9-dimethylmethylene blue. The absorbance at 595 nm was measured to quantify the amount of glycosaminoglycan (GAG) released in the reaction supernatant. Whale chondroitin sulfate was used as the standard of GAG. The inhibitory activity of the compound in each well (%) was calculated based on the values of enzyme-free well and inhibitor-free well. The inhibitory activity of the compound was represented as IC50 (μM).

| SMILES | IC50 (MMP-1) [µM] | IC50 (aggrecanase-1) [µM] |
| --- | --- | --- |
| N#Cc1ccccc1[C@@H]1C[C@@]1(C(=O)O)N(CC(=O)O)S(=O)(=O)c1ccc(-c2ccc(Cl)cc2)cc1 (relative stereo) [Example 1-28, (1R*,2S*)-1-[carboxymethyl-(4′-chloro-biphenyl-4-sulfonyl)-amino]-2-(2-cyano-phenyl)-cyclopropanecarboxylic acid] | ≥ 10 | < 1 |
| O=C(O)CN([C@]1(C(=O)O)C[C@H]1c1c(Cl)cccc1Cl)S(=O)(=O)c1ccc(-c2ccc(Cl)cc2)cc1 (relative stereo) [Example 1-29, (1R*,2S*)-1-[carboxymethyl-(4′-chloro-biphenyl-4-sulfonyl)-amino]-2-(2,6-dichloro-phenyl)-cyclopropanecarboxylic acid] | ≥ 10 | < 1 |
| N#Cc1ccc([C@@H]2C[C@@]2(C(=O)O)N(CC(=O)O)S(=O)(=O)c2ccc(-c3ccc(Cl)cc3)cc2)cc1 (relative stereo) [Example 1-30, (1R*,2S*)-1-[carboxymethyl-(4′-chloro-biphenyl-4-sulfonyl)-amino]-2-(4-cyano-phenyl)-cyclopropanecarboxylic acid] | ≥ 10 | < 1 |
| O=C(O)CN([C@]1(C(=O)O)C[C@H]1c1ccccc1Cc1ccccc1)S(=O)(=O)c1ccc(-c2ccc(Cl)cc2)cc1 (relative stereo) [Example 1-31, (1R*,2S*)-2-(2-benzyl-phenyl)-1-[carboxymethyl-(4′-chloro-biphenyl-4-sulfonyl)-amino]-cyclopropanecarboxylic acid] | ≥ 10 | < 0.1 |
| O=C(O)CN([C@]1(C(=O)O)C[C@H]1c1ccc(-c2ccccc2)cc1)S(=O)(=O)c1ccc(-c2ccc(Cl)cc2)cc1 (relative stereo) [Example 1-32, (1R*,2S*)-2-biphenyl-4-yl-1-[carboxymethyl-(4′-chloro-biphenyl-4-sulfonyl)-amino]-cyclopropanecarboxylic acid] | ≥ 10 | < 1 |
| O=C(O)CN([C@]1(C(=O)O)C[C@H]1c1ccccc1C(F)(F)F)S(=O)(=O)c1ccc(-c2ccc(Cl)cc2)cc1 (relative stereo) [Example 1-33, (1R*,2S*)-1-[carboxymethyl-(4′-chloro-biphenyl-4-sulfonyl)-amino]-2-(2-trifluoromethyl-phenyl)-cyclopropanecarboxylic acid] | ≥ 10 | < 1 |
| O=C(O)CN([C@]1(C(=O)O)C[C@H]1c1cccc(C(F)(F)F)c1)S(=O)(=O)c1ccc(-c2ccc(Cl)cc2)cc1 (relative stereo) [Example 1-34, (1R*,2S*)-1-[carboxymethyl-(4′-chloro-biphenyl-4-sulfonyl)-amino]-2-(3-trifluoromethyl-phenyl)-cyclopropanecarboxylic acid] | ≥ 10 | < 0.1 |
| O=C(O)CN([C@]1(C(=O)O)C[C@H]1c1cc(Cl)ccc1C(F)(F)F)S(=O)(=O)c1ccc(-c2ccc(Cl)cc2)cc1 (relative stereo) [Example 1-35, (1R*,2S*)-1-[carboxymethyl-(4′-chloro-biphenyl-4-sulfonyl)-amino]-2-(5-chloro-2-trifluoromethyl-phenyl)-cyclopropanecarboxylic acid] | ≥ 10 | < 1 |
| CC(C)(CN([C@]1(C(=O)O)C[C@H]1c1ccccc1)S(=O)(=O)c1ccc(-c2ccc(Cl)cc2)cc1)C(=O)O (relative stereo) [Example 1-37, (1R*,2S*)-1-[(2-carboxy-2-methyl-propyl)-(4′-chloro-biphenyl-4-sulfonyl)-amino]-2-phenyl-cyclopropanecarboxylic acid] | ≥ 10 | < 1 |
| CS(=O)(=O)NC(=O)CN([C@]1(C(=O)O)C[C@H]1c1ccccc1)S(=O)(=O)c1ccc(-c2ccc(Cl)cc2)cc1 (relative stereo) [Example 1-38, (1R*,2S*)-1-[(4′-chloro-biphenyl-4-sulfonyl)-(2-methanesulfonylamino-2-oxo-ethyl)-amino]-2-phenyl-cyclopropanecarboxylic acid] | ≥ 10 | < 1 |
| O=C(O)CN([C@]1(C(=O)O)C[C@H]1c1cccc(OCc2ccccc2)c1)S(=O)(=O)c1ccc(-c2ccc(Cl)cc2)cc1 (relative stereo) [Example 1-39, (1R*,2S*)-2-(3-benzyloxy-phenyl)-1-[carboxymethyl-(4′-chloro-biphenyl-4-sulfonyl)-amino]-cyclopropanecarboxylic acid] | ≥ 10 | < 0.1 |
| O=C(O)CN([C@]1(C(=O)O)C[C@H]1c1ccccc1OCc1ccccc1)S(=O)(=O)c1ccc(-c2ccc(Cl)cc2)cc1 (relative stereo) [Example 1-40, (1R*,2S*)-2-(2-benzyloxy-phenyl)-1-[carboxymethyl-(4′-chloro-biphenyl-4-sulfonyl)-amino]-cyclopropanecarboxylic acid] | ≥ 10 | < 0.1 |
| O=C(O)CN([C@]1(C(=O)O)C[C@H]1c1cccc(Cl)c1Cl)S(=O)(=O)c1ccc(-c2ccc(Cl)cc2)cc1 (relative stereo) [Example 1-41, (1R*,2S*)-1-[carboxymethyl-(4′-chloro-biphenyl-4-sulfonyl)-amino]-2-(2,3-dichloro-phenyl)-cyclopropanecarboxylic acid] | ≥ 10 | < 0.1 |
| O=C(O)CN([C@]1(C(=O)O)C[C@H]1c1ccccc1Oc1ccccc1)S(=O)(=O)c1ccc(-c2ccc(Cl)cc2)cc1 (relative stereo) [Example 1-42, (1R*,2S*)-1-[carboxymethyl-(4′-chloro-biphenyl-4-sulfonyl)-amino]-2-(2-phenoxy-phenyl)-cyclopropanecarboxylic acid] | ≥ 10 | < 0.1 |
| O=C(CN([C@]1(C(=O)O)C[C@H]1c1ccccc1)S(=O)(=O)c1ccc(-c2ccc(Cl)cc2)cc1)N1CC(O)C(O)C1 (relative stereo) [Example 1-43, (1R*,2S*)-1-{(4′-chloro-biphenyl-4-sulfonyl)-[2-(3,4-dihydroxy-pyrrolidin-1-yl)-2-oxo-ethyl]-amino}-2-phenyl-cyclopropanecarboxylic acid] | ≥ 10 | < 1 |
| O=C(O)CN([C@]1(C(=O)O)C[C@H]1c1cccc(Cc2ccccc2)c1)S(=O)(=O)c1ccc(-c2ccc(Cl)cc2)cc1 (relative stereo) [Example 1-44, (1R*, 2S*)-2-(3-benzyl-phenyl)-1-[carboxymethyl-(4′-chloro-biphenyl-4-sulfonyl)-amino]-cyclopropanecarboxylic acid] | ≥ 10 | < 0.1 |
| O=C(CN([C@]1(C(=O)O)C[C@H]1c1ccccc1)S(=O)(=O)c1ccc(-c2ccc(Cl)cc2)cc1)N1CCCC1 (relative stereo) [Example 1-45, (1R*,2S*)-1-[(4′-chloro-biphenyl-4-sulfonyl)-(2-oxo-2-pyrrolidin-1-yl-ethyl)-amino]-2-phenyl-cyclopropanecarboxylic acid] | ≥ 10 | < 1 |
| COC(=O)CN([C@]1(C(=O)O)C[C@H]1c1ccccc1)S(=O)(=O)c1ccc(-c2ccc(Cl)cc2)cc1 (relative stereo) [Example 1-46, (1R*,2S*)-1-[(4′-chloro-biphenyl-4-sulfonyl)-methoxycarbonylmethyl-amino]-2-phenyl-cyclopropanecarboxylic acid] | ≥ 10 | < 1 |
